US20130252930A1 (BIOMARIN PHARMACEUTICAL INC., priority 2010, published 2013)
Where two headings read alike, the source gives them in different places.

Assays:
[1] = molecular target: T1, CYP17 (human testicular microsome) (Homo sapiens, UniProt P05093); assay: CYP17 enzymatic assay (IC50) (Biological Example 4); format: biochemical; settings: human testicular microsome
T1 construct: using microsomal fraction from human testis (Celsis Cat #S00110) as the enzyme source; tissue Celsis S00110; host or cells: human testis microsomal fraction
T1 sequence (P05093 1-508): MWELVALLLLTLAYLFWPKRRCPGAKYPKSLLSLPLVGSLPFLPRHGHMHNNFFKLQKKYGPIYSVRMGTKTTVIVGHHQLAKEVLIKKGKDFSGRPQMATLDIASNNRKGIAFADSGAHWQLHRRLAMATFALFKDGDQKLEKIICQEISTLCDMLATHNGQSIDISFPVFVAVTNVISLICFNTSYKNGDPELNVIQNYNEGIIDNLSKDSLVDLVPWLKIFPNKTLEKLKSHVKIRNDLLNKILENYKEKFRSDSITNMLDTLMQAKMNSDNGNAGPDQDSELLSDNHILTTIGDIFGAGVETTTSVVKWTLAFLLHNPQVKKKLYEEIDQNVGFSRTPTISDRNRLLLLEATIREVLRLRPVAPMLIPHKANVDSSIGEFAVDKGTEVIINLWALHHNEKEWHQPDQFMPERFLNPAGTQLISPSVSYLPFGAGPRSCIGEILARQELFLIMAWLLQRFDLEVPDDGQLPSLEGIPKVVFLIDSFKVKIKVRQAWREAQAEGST

[2] = Human liver microsome stability assay (Biological Example 8b); settings: liver microsomes, pH 7.4
Description: The reaction was started with addition of excess NADPH (5 mg/mL, 15 μL in 0.1 M potassium phosphate buffer, 1.0 mM EDTA, pH 7.4), the total volume is 45 μL (compound final concentration was 1 μM). […] 50 μL of the supernatant was transferred from each well into a 96-well sample plate containing 50 μL of ultra-pure water (Millipore) for LC-MS/MS analysis.

[3] = molecular target: T1, CYP17 (human testicular microsome); assay: CYP17 enzymatic assay (% inhibition at 10 nM), version 1 (Biological Example 5); format: biochemical
[4] = molecular target: T1, CYP17 (human testicular microsome); assay: CYP17 enzymatic assay (% inhibition at 1 nM) (Biological Example 12); format: biochemical; settings: compound at 1 nM, read-out: CYP17 enzymatic assay % inhibition at 1 nM (Biological Example No. 12)
[5] = DHEA by ELISA, read-out: Biological Example No. 4: CYP17 enzymatic assay IC50
[6] = 10 nM compound, DHEA by ELISA, read-out: Biological Example No. 5: CYP17 percent inhibition at 10 nM (version 1)
[7] = read-out: CYP17 enzymatic assay IC50 (Biological Example No. 4)
[8] = compound at 10 nM, read-out: CYP17 enzymatic assay % inhibition at 10 nM (Biological Example No. 5)

| Compound | half-life at 1 μM [2] | inhibition at 0.01 µM [3, 6] | IC50 [1, 7] | inhibition at 0.001 µM [4] | also measured |
| --- | --- | --- | --- | --- | --- |
| C[C@]12CC[C@H](O)CC1=CC[C@@H]1[C@@H]2CC[C@]2(C)C(c3cnccc3F)=CC[C@@H]12 [Cmpd 285] | 1 to 50 min |  |  |  | IC50 ([1]; read-out: Biological Example No. 4: CYP17 enzymatic assay IC50): < 11 nM |
| CCCOc1cncc(C2=CC[C@H]3[C@@H]4CCN5C(=O)CCCC[C@]5(C)[C@H]4CC[C@]23C)c1 [Compound 42, (11aR,13aS)-11a,13a-dimethyl-1-(5-propoxypyridin-3-yl)-3b,4,5,8,9,10,11,11a,11b,12,13,13a-dodecahydro-3H-azepino[2,1-a]cyclopenta[f]isoquinolin-7(3aH)-one] |  | 50 to 80% |  |  | IC50 [1, 5]: < 11 nM |
| C=Cc1cncc(C2=CC[C@H]3[C@@H]4CCN5C(=O)CCCC[C@]5(C)[C@H]4CC[C@]23C)c1 [Compound 43, (11aR,13aS)-11a,13a-dimethyl-1-(5-vinylpyridin-3-yl)-3b,4,5,8,9,10,11,11a,11b,12,13,13a-dodecahydro-3H-azepino[2,1-a]cyclopenta[f]isoquinolin-7(3aH)-one] |  | 50 to 80% |  |  | IC50 [1, 5]: < 11 nM |
| COc1cncc(C2=CC[C@H]3[C@@H]4CCC5=CC(=O)NCC[C@]5(C)[C@H]4CC[C@]23C)c1 [Compound 53, (5aR,7aS)-8-(5-methoxypyridin-3-yl)-5a,7a-dimethyl-4,5,5a,5b,6,7,7a,8,9,10,10a,10b,11,12-tetradecahydrocyclopenta[5,6]naphtho[2,1-c]azepin-3(2H)-one] |  | 50 to 80% |  |  | IC50 [1, 5]: < 11 nM |
| COc1cncc(C2=CC=C3[C@@H]4CC=C5C[C@@H](OC(C)=O)CC[C@]5(C)[C@H]4CC[C@]23C)c1 [Compound 80, (3S,10R,13S)-17-(5-methoxypyridin-3-yl)-10,13-dimethyl-2,3,4,7,8,9,10,11,12,13-decahydro-1H-cyclopenta[a]phenanthren-3-yl acetate] |  | > 80% |  |  | IC50 [1, 5]: < 11 nM |
| Cc1cncc(C2=CC[C@H]3[C@@H]4CC[C@H]5CCOCC[C@]5(C)[C@H]4CC[C@]23C)c1 [Compound 126, 3-((5aS,5bS,7aS,10aS,10bR,12aS)-5a,7a-dimethyl-2,4,5,5a,5b,6,7,7a,10,10a,10b,11,12,12a-tetradecahydro-1H-cyclopenta[5,6]naphtho[1,2-d]oxepin-8-yl)-5-methylpyridine] |  | 50 to 80% |  |  | IC50 [1, 5]: < 11 nM |
| CC(=O)O[C@H]1CC[C@@]2(C)[C@@H](CC[C@H]3C4=CC=C(n5ccnc5)[C@@]4(C)CC[C@@H]32)C1 [Compound 169, (5S,8R,9S,10S,13S)-17-(1H-imidazol-1-yl)-10,13-dimethyl-2,3,4,5,6,7,8,9,10,11,12,13-dodecahydro-1H-cyclopenta[a]phenanthren-3-yl acetate] |  | > 80% |  |  | IC50 [1, 5]: < 11 nM |
| C[C@]12CCC3C(CC=C4C[C@H](O)CC[C@@]43C)C1=CC=C2c1cccnc1 (stereo partly drawn) [Compound 199, (3R,10R,13S)-10,13-dimethyl-17-(pyridin-3-yl)-2,3,4,7,8,9,10,11,12,13-decahydro-1H-cyclopenta[a]phenanthren-3-ol] | 1 to 50 min |  | < 11 nM | > 50% |  |
| C[C@]12CCC3C(CC(O)C45CC4CC[C@]35C)C1=CC=C2c1cccnc1 (stereo partly drawn) [Compound 200, (3aR,5aS)-3a,5a-dimethyl-6-(pyridin-3-yl)-1,1a,2,3,3a,3b,4,5,5a,8b,9,10-dodecahydrocyclopenta[a]cyclopropa[2,3]cyclopenta[1,2-f]naphthalen-10-ol] | 1 to 50 min |  | < 11 nM | > 50% |  |
| CC(=O)N[C@@H]1CC[C@@]2(C)C(CCC3C2CC[C@]2(C)C(c4cccnc4)=CCC32)C1 (stereo partly drawn) [Compound 215, N-((3R,10S,13S)-10,13-dimethyl-17-(pyridin-3-yl)-2,3,4,5,6,7,8,9,10,11,12,13,14,15-tetradecahydro-1H-cyclopenta[a]phenanthren-3-yl)acetamide] | 1 to 50 min |  | < 11 nM | > 50% |  |
| C[C@]12CC[C@@H](NC(=O)C3CC3)CC1CCC1C2CC[C@]2(C)C(c3cccnc3)=CCC12 (stereo partly drawn) [Compound 220, N-((3R,10S,13S)-10,13-dimethyl-17-(pyridin-3-yl)-2,3,4,5,6,7,8,9,10,11,12,13,14,15-tetradecahydro-1H-cyclopenta[a]phenanthren-3-yl)cyclopropanecarboxamide] | 1 to 50 min |  | < 11 nM | > 50% |  |
| C[C@]12CC[C@@H](NC(=O)C3CC3)CC1=CCC1C2CC[C@]2(C)C(c3cccnc3)=CCC12 (stereo partly drawn) [Compound 224, N-((3R,10R,13S)-10,13-dimethyl-17-(pyridin-3-yl)-2,3,4,7,8,9,10,11,12,13,14,15-dodecahydro-1H-cyclopenta[a]phenanthren-3-yl)cyclopropanecarboxamide] | 1 to 50 min |  | < 11 nM | > 50% |  |
| COc1cncc(C2=CC[C@H]3[C@@H]4CC=C5C[C@H](NC(=O)C6CC6)CC[C@]5(C)[C@H]4CC[C@]23C)c1 [Compound 230, N-((3R,10R,13S)-17-(5-methoxypyridin-3-yl)-10,13-dimethyl-2,3,4,7,8,9,10,11,12,13,14,15-dodecahydro-1H-cyclopenta[a]phenanthren-3-yl)cyclopropanecarboxamide] | 1 to 50 min |  | < 11 nM | > 50% |  |
| COC1C[C@H]2[C@@H]3CC=C(n4ccnc4)[C@@]3(C)CC[C@@H]2[C@@]2(C)CCC3CC312 (stereo partly drawn) [Compound 236, 1-((3aR,5aS)-10-methoxy-3a,5a-dimethyl-1,1a,2,3,3a,3b,4,5,5a,8,8a,8b,9,10-tetradecahydrocyclopenta[a]cyclopropa[2,3]cyclopenta[1,2-f]naphthalen-6-yl)-1H-imidazole] |  |  | < 11 nM | 10 to 50% | inhibition at 0.01 µM [3, 8]: > 80% |
| Cc1cncc(C2=CC[C@H]3[C@@H]4CCC5N(C)C(=O)COC[C@]5(C)[C@H]4CC[C@]23C)c1 (stereo partly drawn) [Compound 445, (5aR,5bS,7aS,10aS,10bS)-1,5a,7a-trimethyl-8-(5-methylpyridin-3-yl)-5,5a,5b,6,7,7a,10,10a,10b,11,12,12a-dodecahydro-1H-cyclopenta[5,6]naphtho[2,1-e][1,4]oxazepin-2(3H)-one] |  | 1 to 50% |  |  |  |
| Cc1cncc(C2=CCC3C4CCC5=CN(C)CCC[C@]5(C)C4CC[C@]23C)c1 (stereo partly drawn) [Compound 446, (5aR,7aS)-2,5a,7a-trimethyl-8-(5-methylpyridin-3-yl)-2,3,4,5,5a,5b,6,7,7a,10,10a,10b,11,12-tetradecahydrocyclopenta[5,6]naphtho[2,1-c]azepine] |  | 1 to 50% |  |  |  |
| C[C@]12CC[C@H]3[C@@H](CC[C@H]4CNC(=O)CC[C@@]43C)C1=CC=C2n1ccnc1 [Compound 448, (5aR,5bS,7aS,10bR,12aR)-8-(1H-imidazol-1-yl)-5a,7a-dimethyl-1,2,5,5a,5b,6,7,7a,10b,11,12,12a-dodecahydrocyclopenta[5,6]naphtho[2,1-c]azepin-3(4H)-one] |  |  |  |  | inhibition at 0.01 µM [3, 8]: 50 to 80% |
| COC1CC[C@@]2(C)[C@@H](CC[C@@H]3[C@@H]2CC[C@]2(C)C(c4cccnc4)=CC[C@@H]32)C1 (stereo partly drawn) [Compound 449, 3-((5S,8R,9S,10S,13S,14S)-3-methoxy-10,13-dimethyl-2,3,4,5,6,7,8,9,10,11,12,13,14,15-tetradecahydro-1H-cyclopenta[a]phenanthren-17-yl)pyridine] |  |  |  |  | inhibition at 0.01 µM [3, 8]: 1 to 50% |
| COC1CC[C@@]2(C)[C@@H](CC[C@@H]3[C@@H]2CC[C@]2(C)C(c4cncc(C)c4)=CC[C@@H]32)C1 (stereo partly drawn) [Compound 450, 3-((5S,8R,9S,10S,13S,14S)-3-methoxy-10,13-dimethyl-2,3,4,5,6,7,8,9,10,11,12,13,14,15-tetradecahydro-1H-cyclopenta[a]phenanthren-17-yl)-5-methylpyridine] |  |  |  |  | inhibition at 0.01 µM [3, 8]: 1 to 50% |
| C[C@]12CC[C@H](O)C[C@@H]1CC[C@@H]1[C@@H]2CC[C@]2(C)C(n3ccnn3)=CC[C@@H]12 [Compound 451, (3S,5S,8R,9S,10S,13S,14S)-10,13-dimethyl-17-(1H-1,2,3-triazol-1-yl)-2,3,4,5,6,7,8,9,10,11,12,13,14,15-tetradecahydro-1H-cyclopenta[a]phenanthren-3-ol] |  |  | < 11 nM | > 50% | inhibition at 0.01 µM [3, 8]: > 80% |
| COC1CC[C@@]2(C)[C@@H](CC[C@@H]3[C@@H]2CC[C@]2(C)C(n4ccnn4)=CC[C@@H]32)C1 (stereo partly drawn) [Compound 452, 1-((5S,8R,9S,10S,13S,14S)-3-methoxy-10,13-dimethyl-2,3,4,5,6,7,8,9,10,11,12,13,14,15-tetradecahydro-1H-cyclopenta[a]phenanthren-17-yl)-1H-1,2,3-triazole] |  |  |  |  | inhibition at 0.01 µM [3, 8]: 1 to 50% |
